Assay results from patent US12419905B2, “Methods and compositions for the treatment of amyloid-related disorders” (YALE UNIVERSITY, priority 2018, dated 2025).

Assays:
[1] = tested on: Aßo/PrP^C interaction in stably PrP^C-transfected CV1 cells; type: cell-based, rat
[2] = tested on: APP/PS1 transgenic Alzheimer's model mice; experiment: Morris water maze in APP/PS1 mice; type: in vivo, mouse; details: fresh ceftazidime (as Fortaz) 100 mg/kg IP BID
Procedure: For Morris water maze, mice were randomly assigned to treatment groups and the experimenter was unaware of both genotype and treatment group. Groups were balanced for age, sex, and weight. Mice used were 12-14 months of age at experiment initiation. During treatment, the experimenter was blinded to genotype. For drug treated mice, Poly(4-styrenesulfonic acid co-maleic acid) was administered by twice daily oral gavage of 5.0 mg and 15.0 mg Poly(4-styrenesulfonic acid co-maleic acid) per kg body weight in a vehicle of 0.5% w/v hydroxypropyl methylcellulose and 0.1% w/v polysorbate 80 to APP/PS1 and WT mice, respectively. Vehicle treated animals were gavaged twice daily with vehicle. 500 mg ceftazidime as Fortaz was dissolved per manufacturer's instructions in 1.5 ml sterile milliQ H2O to obtain 333 mg/ml in sodium carbonate solution. Animals treated peripherally with fresh ceftazidime were injected directly after dissolution intraperitoneally with 100 mg ceftazidime per kg body weight in a vehicle of PBS. Animals treated centrally with aged ceftazidime were fitted with an intracerebroventricular cannula (Alzet brain infusion kit 0008663) and subcutaneous osmotic minipump (Alzet model 1004) loaded with aged ceftazidime diluted in PBS. All animals were treated for 4 weeks prior to the Morris water maze and throughout assessment. […]

Compound | Aßo/PrP^C interaction-inhibiting activity, aged drug [1] | Aßo/PrP^C interaction-inhibiting activity, fresh drug [1] | MWM latency to hidden platform, effect of treatment [2]
CO/N=C(\C(=O)N[C@@H]1C(=O)N2C(C(=O)O)=C(COC(C)=O)CS[C@H]12)c1csc(N)n1 [cefotaxime] | zero activity | zero activity | 
CO/N=C(\C(=O)N[C@@H]1C(=O)N2C(C(=O)O)=C(CSc3nc(=O)c(=O)[nH]n3C)CS[C@H]12)c1csc(N)n1 [ceftriaxone] | zero activity | zero activity | 
CC(C)(O/N=C(\C(=O)N[C@@H]1C(=O)N2C(C(=O)[O-])=C(C[n+]3ccccc3)CS[C@H]12)c1csc(N)n1)C(=O)O [ceftazidime] | exhibited activity |  | no detectable effect
